Experimental data from US20250231157A1, “METHOD FOR DETERMINING THE PARTITION OF NAPHTHENIC ACIDS FROM A PRODUCTION WATER MIMICKING SYSTEM AND MIMICKING SYSTEM” (PETRÓLEO BRASILEIRO S.A. – PETROBRAS, priority 2023, published 2025).
Several values for one entry are separate records, joined by “and”; a condition that tells them apart may be missing. Equal entries are not always repeated.

What was measured:
[1] = Partition equilibrium under the influence of salinity (NaCl), glass reactor, neutralization titration; assay type: physicochemical; details: Salinity 0 (%, m · m^−1) NaCl
[2] = Partition equilibrium with addition of calcium and strontium salts to the aqueous phase; assay type: physicochemical; details: for Migration: salinity 3.5%
[3] = Partition equilibrium in the presence of demulsifiers (Dissolvan 961, Dissolvan 974)
Source text: Finally, neutralization titration with a standardized NaOH titrant solution was used to determine the effect on the partition equilibrium for four acidic species (the same as in the other examples, except for dicyclohexylacetic acid).

[4] = Partition equilibrium (migration to aqueous phase) heptol/water under pressure and temperature, central composite design, potentiometric titration; assay type: physicochemical; details: for Migration, Predicted: model value
Method: Three multivariate experimental designs (central composite designs) were performed in which the variables pressure (up to 1 MPa) and temperature (between 25° C. and 80° C.) were considered independent variables, with the migration of three acidic species as the response factor: benzoic, pentanoic and cyclohexanepentanoic acid. For this purpose, 5 levels were defined and gave rise to 10 experiments for each acidic species (Table 4), added to two control experiments (with higher pressure and temperature, as well as in the absence of pressure and at room temperature).
The experiments were performed with constant salinity of 3.5% (m·v^−1), constant heptol fraction (70:30, for heptane and toluene), and acidic species concentration of 0.03 M for benzoic and pentanoic acid, and 0.01 M for cyclohexanepentanoic acid. The results were evaluated with 95% confidence, using a response surface to estimate the maximum observable effect in each case, provided that the mathematical correlation was equal to or greater than R^2: 0.75.

[5] = Partition equilibrium in the presence of surfactants (TBA, CTA, TMA); assay type: physicochemical
[6] = Partition equilibrium under the influence of salinity (NaCl), glass reactor, neutralization titration; assay type: physicochemical
[7] = 52 °C, 0.5 MPa (experiments 9 and 10)

Migration [1]: 76.7 %, mol
Migration ([2]; Absence of ions): 77.0 %, mol
Migration ([2]; Calcium 400 mg · L^−1): 90.0 %, mol
Migration ([2]; Calcium 400 mg · L^−1, listed as pentanoic acid): ~100 %, mol
Migration ([2]; Calcium 1200 mg · L^−1): 98.7 %, mol
Migration ([2]; Calcium 2600 mg · L^−1): 96.7 %, mol
Migration ([2]; Strontium 400 mg · L^−1): 100.0 %, mol
Migration ([2]; Strontium 1200 mg · L^−1): 100.0 %, mol
Migration ([2]; Strontium 2600 mg · L^−1): 100.0 %, mol
Effect of strontium ions on migration to the aqueous phase ([2]; strontium 400-2600 mg·L^−1): increase in migration
Migration ([3]; Absence of ions (no demulsifier), salinity 3.5%): 77.0 %, mol
Migration ([3]; D961 50 mg · L^−1): 67.0 %, mol
Migration ([3]; D961 100 mg · L^−1): 70.0 %, mol
Migration ([3]; D961 1000 mg · L^−1): 75.7 %, mol
Migration ([3]; D974 50 mg · L^−1): 66.9 %, mol
Migration ([3]; D974 100 mg · L^−1): 74.3 %, mol
Migration ([3]; D974 1000 mg · L^−1): 74.8 %, mol
Effect of demulsifiers on partition equilibrium ([3]; up to 1000 mg·L^−1, 95% significance): no observable effect
Migration, Measured ([4]; 20 °C, 0.1 MPa (experiment 12, control)): 86.6 %, mol
Migration, Increment (related to control) ([4]; 25 °C, 0.5 MPa (experiment 5)): −10.8 %, mol
Migration, Measured ([4]; 25 °C, 0.5 MPa (experiment 5)): 77.3 %, mol
Migration, Increment (related to control) ([4]; 38 °C, 0.25 MPa (experiment 1)): −13.3 %, mol
Migration, Measured ([4]; 38 °C, 0.25 MPa (experiment 1), heptol 70:30, 3.5% salinity): 75.1 %, mol
Migration, Increment (related to control) ([4]; 38 °C, 0.75 MPa (experiment 3)): −12.2 %, mol
Migration, Measured ([4]; 38 °C, 0.75 MPa (experiment 3)): 76.1 %, mol
Migration, Increment (related to control) ([4]; 52 °C, 0.1 MPa (experiment 7)): −1.5 %, mol
Migration, Measured ([4]; 52 °C, 0.1 MPa (experiment 7)): 85.3 %, mol
Migration, Increment (related to control) [4, 7]: 2.2 %, mol and 1.8 %, mol
Migration, Measured ([4]; 52 °C, 0.5 MPa (experiments 9 and 10, centre point)): 88.5 %, mol and 88.2 %, mol
Migration, Increment (related to control) ([4]; 52 °C, 1 MPa (experiment 8)): 3.1 %, mol
Migration, Measured ([4]; 52 °C, 1 MPa (experiment 8)): 89.4 %, mol
Migration, Increment (related to control) ([4]; 66 °C, 0.25 MPa (experiment 2)): −4.1 %, mol
Migration, Measured ([4]; 66 °C, 0.25 MPa (experiment 2)): 83.1 %, mol
Migration, Increment (related to control) ([4]; 66 °C, 0.75 MPa (experiment 4)): −5.2 %, mol
Migration, Measured ([4]; 66 °C, 0.75 MPa (experiment 4)): 82.2 %, mol
Migration, Increment (related to control) ([4]; 80 °C, 0.5 MPa (experiment 6)): 0.5 %, mol
Migration, Measured ([4]; 80 °C, 0.5 MPa (experiment 6)): 87.1 %, mol
Migration, Increment (related to control) ([4]; 80 °C, 1 MPa (experiment 11)): 2.5 %, mol
Migration, Measured ([4]; 80 °C, 1 MPa (experiment 11, control)): 88.8 %, mol
Migration, Predicted ([4]; 25 °C, 0.5 MPa (experiment 5)): 74.2 %, mol
Migration, Predicted ([4]; 38 °C, 0.25 MPa (experiment 1)): 79.9 %, mol
Migration, Predicted ([4]; 38 °C, 0.75 MPa (experiment 3)): 82.2 %, mol
Migration, Predicted ([4]; 52 °C, 0.1 MPa (experiment 7)): 83.6 %, mol
Migration, Predicted [4, 7]: 85.4 %, mol
Migration, Predicted ([4]; 52 °C, 1 MPa (experiment 8)): 86.3 %, mol
Migration, Predicted ([4]; 66 °C, 0.25 MPa (experiment 2)): 86.5 %, mol
Migration, Predicted ([4]; 66 °C, 0.75 MPa (experiment 4)): 86.9 %, mol
Migration, Predicted ([4]; 80 °C, 0.5 MPa (experiment 6)): 85.5 %, mol
Migration, Predicted ([4]; 80 °C, 1 MPa (experiment 11)): 85.4 %, mol
Decrease in the tendency to migrate relative to control, maximum over the design ([4]; pressure up to 1 MPa, 25-80 °C): up to 13.3 % mol
Increase in migration relative to control, maximum over the design ([4]; pressure up to 1 MPa, 25-80 °C): up to 3.1 % mol
Migration ([5]; Absence of surfactant, salinity 3.5%): 77.0 %, mol
Migration ([5]; CTA100 (cetyltrimethylammonium chloride 100 mg · L^−1)): 76.0 %, mol
Migration ([5]; CTA1000 (1000 mg · L^−1)): 85.0 %, mol
Migration ([5]; TBA100 (tetrabutylammonium chloride 100 mg · L^−1)): 76.2 %, mol
Migration ([5]; TBA1000 (1000 mg · L^−1)): 73.3 %, mol
Migration ([5]; TMA100 (trimethylammonium chloride 100 mg · L^−1)): 83.2 %, mol
Migration ([5]; TMA1000 (1000 mg · L^−1)): 83.5 %, mol
Increase in migration to the aqueous phase with CTA ([5]; surfactant CTA, 1000 mg·L^−1): ~10%
Effect of TBA on migration to the aqueous phase ([5]; surfactant TBA, different concentrations): no significant effect
Increase in affinity for the hydrophilic phase with TMA ([5]; surfactant TMA, from 100 mg·L^−1): approximately 10%
Salting out effect (reduction in the number of moles contained in the aqueous phase) ([6]; 30% (m·v^−1) NaCl versus tests without salinity): approximately 300%
Migration ([6]; Salinity 3.5 (%, m · m^−1) NaCl): 73.3 %, mol
Migration ([6]; Salinity 18.0 (%, m · m^−1) NaCl): 40.0 %, mol
Migration ([6]; Salinity 30.0 (%, m · m^−1) NaCl): 23.3 %, mol
Compound: CCCCC(=O)O [Pentanoic Acid, pentanoic acid]
